Test results reported in BindingDB's records for doi:10.1021/jm00160a020 (1986).
pIC50: −log10 of the molar value.

Target: Platelet-activating factor receptor (Oryctolagus cuniculus)
Assay: Inhibition of PAF receptor binding to rabbit platelet plasma membranes

Row | pIC50 | SMILES
1 | 6.30 | COc1ccc([C@H]2CC[C@H](c3ccc(OC)c(OC)c3)O2)cc1OC
2 | < 5.52 | COc1ccc(C2CC[C@H](c3ccc(OC)c(OC)c3)O2)cc1OC (some centres not stated)
